ChEMBL document CHEMBL1201862, “PubChem BioAssay data set” (2004)
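Test compounds were applied to cells in 96-well plates for 48 hours at 5 doses. GI50 = concentration required for 50% inhibition of growth.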 Calls of active or inactive are those of the source. Rule as the data show it: active = GI50 up to about 1.1 µM and inactive = higher.

Key:
Test in all cases: NCI anticancer screen, dose series, 48 h
A549 = test system: A549
CAKI-1 = test system: CAKI-1
EKVX = test system: EKVX
HCT-116 = test system: HCT-116
HT-29 = test system: HT-29
Hs-578T = test system: Hs-578T
NCI/ADR-RES = test system: NCI/ADR-RES
OVCAR-8 = test system: OVCAR-8
SF-268 = test system: SF-268
SF-295 = test system: SF-295
SF-539 = test system: SF-539
SK-MEL-2 = test system: SK-MEL-2
SN12C = test system: SN12C
SNB-75 = test system: SNB-75
U-251 = test system: U-251
UACC-257 = test system: UACC-257
UACC-62 = test system: UACC-62
K562 = test system: K562
LOX IMVI = test system: LOX IMVI
SR = test system: SR

SMILES	GI50 (A549)	GI50 (CAKI-1)	GI50 (EKVX)	GI50 (HCT-116)	GI50 (HT-29)	GI50 (Hs-578T)	GI50 (NCI/ADR-RES)	GI50 (OVCAR-8)	GI50 (SF-268)	GI50 (SF-295)	GI50 (SF-539)	GI50 (SK-MEL-2)	GI50 (SN12C)	GI50 (SNB-75)	GI50 (U-251)	GI50 (UACC-257)	GI50 (UACC-62)	GI50 (K562)	GI50 (LOX IMVI)	GI50 (SR)
O=[N+]([O-])C(/C(Cl)=C(/Cl)N1CCCCC1)=C1\NCCO1	> 100 µM (inactive)	> 100 µM (inactive)	> 100 µM (inactive)	> 100 µM (inactive)	> 100 µM (inactive)	> 100 µM (inactive)	> 100 µM (inactive)	> 100 µM (inactive)	> 100 µM (inactive)	> 100 µM (inactive)	> 100 µM (inactive)	> 100 µM (inactive)	> 100 µM (inactive)	> 100 µM (inactive)	> 100 µM (inactive)	> 100 µM (inactive)	> 100 µM (inactive)	–	–	–
Cc1c2ccncc2c(C)c2c1[nH]c1ccc(Cl)cc12	–	–	4.84 µM (inactive)	1.07 µM (active)	2.2 µM (inactive)	–	1.22 µM (inactive)	1.22 µM (inactive)	–	–	2.44 µM (inactive)	3.51 µM (inactive)	3.41 µM (inactive)	3.55 µM (inactive)	5.13 µM (inactive)	–	3.37 µM (inactive)	1.62 µM (inactive)	1.55 µM (inactive)	–
O=C1CC(c2ccc(Cl)cc2)C2(C(=O)NC(=O)NC2=O)C(c2ccc(Cl)cc2)C1 (stereo not drawn)	–	35.2 µM (inactive)	47.4 µM (inactive)	31.6 µM (inactive)	23 µM (inactive)	–	26.4 µM (inactive)	27.5 µM (inactive)	42.8 µM (inactive)	28.8 µM (inactive)	28.2 µM (inactive)	15.6 µM (inactive)	21.6 µM (inactive)	49.5 µM (inactive)	27.5 µM (inactive)	30.8 µM (inactive)	40.5 µM (inactive)	7.5 µM (inactive)	31.4 µM (inactive)	–
CN(C)CCC(=O)N1C/C(=C/c2ccccc2)C(=O)/C(=C\c2ccccc2)C1	4.7 µM (inactive)	2.41 µM (inactive)	3.78 µM (inactive)	0.447 µM (active)	0.679 µM (active)	3.55 µM (inactive)	–	1.03 µM (active)	2.74 µM (inactive)	2.93 µM (inactive)	3.91 µM (inactive)	2.95 µM (inactive)	1.25 µM (inactive)	4.74 µM (inactive)	0.662 µM (active)	2.08 µM (inactive)	1.53 µM (inactive)	0.182 µM (active)	0.436 µM (active)	0.386 µM (active)
C/C=C1\CC(C(=O)OCC)CCCCCCCCCCC1=O (stereo not drawn)	51.3 µM (inactive)	> 100 µM (inactive)	41.5 µM (inactive)	33.4 µM (inactive)	46.8 µM (inactive)	28.9 µM (inactive)	34.7 µM (inactive)	43.3 µM (inactive)	53.5 µM (inactive)	57.4 µM (inactive)	> 100 µM (inactive)	36.1 µM (inactive)	26.6 µM (inactive)	27.7 µM (inactive)	55.2 µM (inactive)	37.8 µM (inactive)	91.2 µM (inactive)	–	28.8 µM (inactive)	–
COc1cc2c(c(OC)c1OC)-c1ccc(OC)c(=O)cc1C(NC(=O)c1ccc(N=[N+]=[N-])cc1)CC2 (stereo not drawn)	0.0408 µM (active)	0.032 µM (active)	0.132 µM (active)	0.0334 µM (active)	0.0288 µM (active)	0.084 µM (active)	–	0.0335 µM (active)	0.0557 µM (active)	0.0246 µM (active)	0.0238 µM (active)	0.0327 µM (active)	0.0514 µM (active)	0.766 µM (active)	0.0307 µM (active)	0.615 µM (active)	0.0275 µM (active)	0.0246 µM (active)	0.0423 µM (active)	0.0435 µM (active)
COC(=O)c1cc(C#N)[nH]c1-c1cccs1	> 100 µM (inactive)	56.8 µM (inactive)	91.2 µM (inactive)	> 100 µM (inactive)	–	–	33.7 µM (inactive)	> 100 µM (inactive)	> 100 µM (inactive)	86.5 µM (inactive)	> 100 µM (inactive)	–	> 100 µM (inactive)	25.8 µM (inactive)	> 100 µM (inactive)	> 100 µM (inactive)	97.7 µM (inactive)	> 100 µM (inactive)	–	> 100 µM (inactive)
O=C(NCCCN(CCCCN(CCCNC(=O)C(F)(F)F)Cc1ccc2ccccc2c1)Cc1ccc2ccccc2c1)C(F)(F)F	> 100 µM (inactive)	–	> 100 µM (inactive)	4.45 µM (inactive)	1.44 µM (inactive)	–	73.5 µM (inactive)	> 100 µM (inactive)	> 100 µM (inactive)	> 28.6 µM (inactive)	4.62 µM (inactive)	> 20 µM (inactive)	> 100 µM (inactive)	> 100 µM (inactive)	3.91 µM (inactive)	2.28 µM (inactive)	2.31 µM (inactive)	2.48 µM (inactive)	4.36 µM (inactive)	2.7 µM (inactive)
CN(C)C(=S)/N=c1\ss/c(=N\C(=S)N(C)C)n1-c1ccc(Cl)c(Cl)c1	> 100 µM (inactive)	> 100 µM (inactive)	> 100 µM (inactive)	> 100 µM (inactive)	> 100 µM (inactive)	–	–	> 100 µM (inactive)	> 100 µM (inactive)	> 100 µM (inactive)	> 100 µM (inactive)	> 100 µM (inactive)	> 100 µM (inactive)	27.1 µM (inactive)	> 100 µM (inactive)	> 100 µM (inactive)	30.9 µM (inactive)	> 100 µM (inactive)	> 100 µM (inactive)	> 100 µM (inactive)
COC(=O)CSc1nnc(-c2ccc(O)c([N+](=O)[O-])c2)[nH]1	> 100 µM (inactive)	> 100 µM (inactive)	> 100 µM (inactive)	> 100 µM (inactive)	> 100 µM (inactive)	–	–	> 100 µM (inactive)	> 100 µM (inactive)	> 100 µM (inactive)	> 100 µM (inactive)	> 100 µM (inactive)	> 100 µM (inactive)	> 100 µM (inactive)	> 100 µM (inactive)	> 100 µM (inactive)	> 100 µM (inactive)	> 100 µM (inactive)	> 100 µM (inactive)	> 100 µM (inactive)
O=C1Nc2ccccc2C(=O)O/C(Cc2ccccc2)=N\c2ccccc21	> 100 µM (inactive)	> 100 µM (inactive)	> 100 µM (inactive)	> 100 µM (inactive)	> 100 µM (inactive)	–	> 100 µM (inactive)	> 100 µM (inactive)	> 100 µM (inactive)	> 100 µM (inactive)	> 100 µM (inactive)	> 100 µM (inactive)	> 100 µM (inactive)	25.9 µM (inactive)	> 100 µM (inactive)	54.6 µM (inactive)	> 100 µM (inactive)	> 100 µM (inactive)	> 100 µM (inactive)	> 100 µM (inactive)
Brc1ccc2c(-c3csc(-c4c[nH]c5ccccc45)n3)c[nH]c2c1	15.8 µM (inactive)	15.8 µM (inactive)	15.6 µM (inactive)	14.7 µM (inactive)	15.6 µM (inactive)	–	16.8 µM (inactive)	18.2 µM (inactive)	18.3 µM (inactive)	–	16 µM (inactive)	–	17.3 µM (inactive)	24.4 µM (inactive)	17.9 µM (inactive)	22.8 µM (inactive)	18.2 µM (inactive)	–	15.5 µM (inactive)	–
C#CCN(C(=O)C(F)(F)F)C(/C=C\C(=O)OC)(C(=O)OCC)C(=O)OCC	> 100 µM (inactive)	–	> 100 µM (inactive)	–	> 100 µM (inactive)	> 100 µM (inactive)	> 100 µM (inactive)	> 100 µM (inactive)	> 100 µM (inactive)	> 100 µM (inactive)	> 100 µM (inactive)	> 100 µM (inactive)	> 100 µM (inactive)	> 100 µM (inactive)	> 100 µM (inactive)	–	> 100 µM (inactive)	> 100 µM (inactive)	> 100 µM (inactive)	–
O=C(NCP(=O)(O)O)c1cccnc1 [(NICOTINAMIDOMETHYL)PHOSPHONIC ACID]	> 100 µM (inactive)	> 100 µM (inactive)	> 100 µM (inactive)	> 100 µM (inactive)	> 100 µM (inactive)	–	> 100 µM (inactive)	> 100 µM (inactive)	–	> 100 µM (inactive)	> 100 µM (inactive)	> 100 µM (inactive)	> 100 µM (inactive)	92.3 µM (inactive)	> 100 µM (inactive)	> 100 µM (inactive)	> 100 µM (inactive)	> 100 µM (inactive)	> 100 µM (inactive)	> 100 µM (inactive)
O=CC12C3CCC1C2C(=O)C3 (stereo not drawn)	> 100 µM (inactive)	> 100 µM (inactive)	> 100 µM (inactive)	> 100 µM (inactive)	> 100 µM (inactive)	–	> 100 µM (inactive)	> 100 µM (inactive)	> 100 µM (inactive)	> 100 µM (inactive)	> 100 µM (inactive)	> 100 µM (inactive)	> 100 µM (inactive)	> 100 µM (inactive)	> 100 µM (inactive)	> 100 µM (inactive)	> 100 µM (inactive)	> 100 µM (inactive)	> 100 µM (inactive)	> 100 µM (inactive)
CCN(CC)CCNc1ccc2nnn3c4ccccc4c(=O)c1c23	3.59 µM (inactive)	3.15 µM (inactive)	4.13 µM (inactive)	4.44 µM (inactive)	2.51 µM (inactive)	–	–	3.15 µM (inactive)	4.83 µM (inactive)	4.29 µM (inactive)	6.84 µM (inactive)	6.85 µM (inactive)	4.41 µM (inactive)	3.6 µM (inactive)	3.27 µM (inactive)	4.48 µM (inactive)	5.73 µM (inactive)	2.97 µM (inactive)	2.86 µM (inactive)	1.15 µM (inactive)
